Measured values taken from US7892767B2, “Phosphospecific chemokine receptor antibodies” (Washington University in St. Louis, priority 2005, dated 2011).

Tests used:
[1] = tested on: U87 glioblastoma cells; test: Intracellular cAMP by ELISA, U87 glioblastoma cells; type: cell-based, human
Method: (§1) Growth factor and drug treatment. Following serum-starvation for 24 hours, astrocytes, granule cells, U87 cells and Daoy cells, were treated with 1 μg/ml CXCL12 (PeproTech), […] AMD3465 (kind gift from Simon Fricker, AnorMED, Langley, BC, Canada) (200 μM Rolipram (Sigma), or 10 μM Forskolin (Sigma) as indicated.
(§2) cAMP measurement in cell culture. cAMP concentration was measured using a Correlated-EIA™. Enzyme Immunoassay Kit (Assay Designs Inc. MI) according to the manufacturer's instructions. Briefly, U87 or Daoy cells were serum-starved for 24 hours, and treated with CXCL12 (1 μg/ml), Rolipram (200 μM), or forskolin (10 μM). Cells were lysed in 0.1M HCL and particulate matter was removed by centrifugation at >600×g for 10 min. The supernatants were dried down and resuspended in assay buffer.
(§3) Determination of cAMP concentration. Competitive immunoassay for cAMP concentration was performed exactly as directed by the manufacturer. Absorbance at 405 nm was measured and cAMP concentrations were determined by calculation based on a standard curve. Protein concentrations were measured by colormetric assay (Bio-Rad, Hercules, Calif.) according to the manufacturer's directions. cAMP values were normalized to protein for each sample individually.

[2] = tested on: PDE4A-expressing U87 cells; test: Viable cell number, PDE4A-expressing U87 cells; type: cell-based, human; conditions: CXCL12 1 μg/ml, AMD 3465 2.5 μg/ml, Rolipram 200 μM
Method: (§4) PDE4A expression. U87 and Daoy cells (15,000 cells) were transiently transfected for 48 h with a plasmid encoding a transgene for the tet-off transactivator (tTA) alone (kind gift from Dr. Louis Muglia, Washington University School of Medicine, St. Louis, Mo.), a plasmid containing a transgene for tet-off regulated expression of phosphodiesterase 4A (PDE4A) alone (kind gift from Dr. James Cherry, Boston University, Boston, Mass.), or a combination of both plasmids, using lipofectamine (Invitrogen) according to the manufacturer's instructions. Plasmid DNA (2 μg) was mixed with lipofectamine (5 μl) per 35 mm^2 dish. Transfection proceeded for 9 hours prior to exchanging transfection media for αMEM supplemented with 10% FCS.

[3] = tested on: Daoy medulloblastoma cells; test: Intracellular cAMP by ELISA, Daoy medulloblastoma cells; type: cell-based, human
Method: as §1, §2, §3

[4] = target: CXCR4 (Homo sapiens, UniProt P61073); conditions: compared with AMD 3100, reference (84); cited from earlier work
[5] = tested on: U87 GBM xenografts; test: Intracranial U87 xenograft growth by bioluminescence imaging; type: in vivo, mouse
[6] = tested on: PDE4A-expressing Daoy cells; test: Viable cell number, PDE4A-expressing Daoy cells; type: cell-based, human; conditions: CXCL12 1 μg/ml, AMD 3465 2.5 μg/ml, Rolipram 200 μM
Method: as §4

[7] = tested on: Daoy medulloblastoma cells; test: Viable cell number by trypan blue exclusion, Daoy cells; type: cell-based, human; conditions: Rolipram 200 μM, AMD 3465 2.5 μg/ml; for effect on CXCL12 induced growth: with CXCL12 1 μg/ml, Forskolin 10 μM
Method: (§5) Brain tumor cell cultures. Cells were cultured in αMEM (Invitrogen, Carlsbad, Calif.) supplemented with 10% FCS (Biomedia, Foster City, Calif.) in the presence of penicillin streptomycin at 37° C. with 5% CO2.
as §1

[8] = tested on: U87 glioblastoma cells; test: Viable cell number by trypan blue exclusion, U87 cells; type: cell-based, human; conditions: Rolipram 200 μM, AMD 3465 2.5 μg/ml; for effect on CXCL12 induced growth: with CXCL12 1 μg/ml, Forskolin 10 μM
Method: as §5, §1

[9] = tested on: Daoy xenografts; test: cAMP in xenograft tumor tissue by ELISA; type: in vivo, mouse; conditions: same treatment paradigms as growth studies, EGFP-luciferase xenografts
Method: cAMP measurement in tumor tissue. EGFP-expressing tumor tissue was removed under direct fluorescence microscopy and frozen in liquid nitrogen. Frozen tissue was weighed and homogenized with 10 volumes of 10% ice-cold trichloroacetic acid, then centrifuged for 10 min at 4000 rpm to remove precipitate. The supernatant was washed three times with 8 volumes of water-saturated ether. The aqueous phase was dried down and resuspended in cAMP assay buffer.
as §3
To ascertain whether the in vivo anti-tumor effects of Rolipram and AMD 3465 were correlated with increases in intratumoral cAMP, we repeated the treatment paradigms with Daoy xenografts that had been engineered to express both enhanced green fluorescent protein (EGFP) and firefly luciferase. […] Tumor tissue was easily visualized in situ under direct fluorescence microscopy (FIG. 20A). Cyclic AMP was extracted from GFP positive tissue, and cAMP levels were measured by ELISA.

[10] = tested on: Daoy xenografts; test: Intracranial Daoy xenograft growth by bioluminescence imaging; type: in vivo, mouse
[11] = added to chemotherapy and radiation therapy; decreased consciousness and increased seizure activity; reference (109); cited from earlier work
[12] = in vivo; cited from earlier work
[13] = Tolerability in xenograft-bearing mice; type: in vivo, mouse; conditions: 5 μg/g/day in the drinking water
[14] = AMD 3465 2.5 μg/ml coadministered with CXCL12 1 μg/ml
[15] = continuous subcutaneous infusion 50 μg/day (2.5 mg/kg/day) for 5 weeks
[16] = Rolipram 200 μM or Forskolin 10 μM, not abrogated by CXCL12
[17] = 5 μg/g/day in the drinking water, from two weeks after tumor cell injection

CXCR4, sequence (P61073 whole entry, species assumed): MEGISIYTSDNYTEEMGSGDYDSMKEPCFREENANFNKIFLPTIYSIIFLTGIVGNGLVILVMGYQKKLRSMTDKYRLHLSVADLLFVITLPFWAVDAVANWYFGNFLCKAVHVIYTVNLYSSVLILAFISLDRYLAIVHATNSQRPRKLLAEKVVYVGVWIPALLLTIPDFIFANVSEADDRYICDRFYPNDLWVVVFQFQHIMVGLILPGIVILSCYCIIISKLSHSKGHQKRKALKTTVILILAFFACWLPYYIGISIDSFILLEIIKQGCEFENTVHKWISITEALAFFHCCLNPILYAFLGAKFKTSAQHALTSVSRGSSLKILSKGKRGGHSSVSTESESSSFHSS

SMILES: c1ccc(CNCc2ccc(CN3CCCNCCNCCCNCC3)cc2)nc1 [AMD 3465]
- effect on cAMP levels alone ([1]; AMD 3465 2.5 μg/ml): little to no effect
- CXCL12-induced suppression of cAMP [1, 14]: blocked
- effect on cell number [2]: no effect
- effect on cAMP levels alone ([3]; AMD 3465 2.5 μg/ml): little to no effect
- CXCL12-induced suppression of cAMP [3, 14]: blocked
- affinity for CXCR4 [4]: greater affinity
- inhibition of xenograft growth as compared to controls [5, 15]: 80%
- effect on cell number [6]: no effect
- effect on cell number alone [7]: no significant effect
- effect on CXCL12 induced growth [7]: completely blocked
- effect on cell number alone [8]: no significant effect
- effect on CXCL12 induced growth [8]: completely blocked
- amount of cAMP within tumor tissue [9]: significant increase
- inhibition of xenograft growth as compared to controls [10, 15]: 85%

SMILES: CC(=O)CCCCn1c(=O)c2c(ncn2C)n(C)c1=O [Pentoxiphyllin]
- toxicity [11]: excessive toxicity

SMILES: COc1ccc(C2CNC(=O)C2)cc1OC1CCCC1 (centres unmarked) [Rolipram]
- change in intracellular cAMP [1, 16]: predictable increases
- blood brain barrier passage [12]: crosses an intact blood brain barrier
- effect on cell number [2]: growth inhibitory effect
- change in intracellular cAMP [3, 16]: predictable increases
- inhibition of xenograft growth [5, 17]: 96%
- effect on cell number [6]: growth inhibitory effect
- effect on cell number alone [7]: little to no effect
- effect on CXCL12 induced growth [7]: completely blocked
- effect on cell number alone [8]: little to no effect
- effect on CXCL12 induced growth [8]: completely blocked
- animal weights compared to the control group ([13]; data not shown): better maintained
- appearance of treated animals ([13]; throughout the treatment period): appeared well
- amount of cAMP within tumor tissue [9]: significant increase
- inhibition of xenograft growth [10, 17]: 58%
